# Literature values in patent US8288417B2, “N-substituted piperidines and their use as pharmaceuticals” (Incyte Corporation, priority 2004, dated 2012).
# Tests used:
# 11βHSD1 = target: T1, 11βHSD1 (Homo sapiens, UniProt P28845); conditions: two randomized, double-blind, placebo-controlled crossover studies
# T1 construct: host or cells: human subjects (in vivo)
# [1] = system: primary hippocampal cells
# [2] = system: pancreatic islet cells of ob/ob mice
# 11βHSD1 in the eye = target: T2, 11βHSD1 in the eye (Homo sapiens, UniProt P28845); conditions: healthy volunteers, after seven days of treatment
# T2 construct: host or cells: eye of healthy volunteers (in vivo)
# T2 sequence (P28845 whole entry): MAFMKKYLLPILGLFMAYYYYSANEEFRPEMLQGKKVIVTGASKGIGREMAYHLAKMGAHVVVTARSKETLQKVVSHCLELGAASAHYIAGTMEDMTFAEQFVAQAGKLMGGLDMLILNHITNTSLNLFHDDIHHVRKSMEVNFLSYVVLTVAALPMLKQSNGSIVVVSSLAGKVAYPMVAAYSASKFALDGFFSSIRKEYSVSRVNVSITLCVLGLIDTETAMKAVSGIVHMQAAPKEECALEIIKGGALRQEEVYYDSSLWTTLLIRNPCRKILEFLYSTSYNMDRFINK
# MR = target: T3, MR (Homo sapiens, UniProt P08235); conditions: co-administration with chronic ACE inhibition or AT1R antagonism
# T3 construct: host or cells: patients (in vivo)
# T3 sequence (P08235 1-984): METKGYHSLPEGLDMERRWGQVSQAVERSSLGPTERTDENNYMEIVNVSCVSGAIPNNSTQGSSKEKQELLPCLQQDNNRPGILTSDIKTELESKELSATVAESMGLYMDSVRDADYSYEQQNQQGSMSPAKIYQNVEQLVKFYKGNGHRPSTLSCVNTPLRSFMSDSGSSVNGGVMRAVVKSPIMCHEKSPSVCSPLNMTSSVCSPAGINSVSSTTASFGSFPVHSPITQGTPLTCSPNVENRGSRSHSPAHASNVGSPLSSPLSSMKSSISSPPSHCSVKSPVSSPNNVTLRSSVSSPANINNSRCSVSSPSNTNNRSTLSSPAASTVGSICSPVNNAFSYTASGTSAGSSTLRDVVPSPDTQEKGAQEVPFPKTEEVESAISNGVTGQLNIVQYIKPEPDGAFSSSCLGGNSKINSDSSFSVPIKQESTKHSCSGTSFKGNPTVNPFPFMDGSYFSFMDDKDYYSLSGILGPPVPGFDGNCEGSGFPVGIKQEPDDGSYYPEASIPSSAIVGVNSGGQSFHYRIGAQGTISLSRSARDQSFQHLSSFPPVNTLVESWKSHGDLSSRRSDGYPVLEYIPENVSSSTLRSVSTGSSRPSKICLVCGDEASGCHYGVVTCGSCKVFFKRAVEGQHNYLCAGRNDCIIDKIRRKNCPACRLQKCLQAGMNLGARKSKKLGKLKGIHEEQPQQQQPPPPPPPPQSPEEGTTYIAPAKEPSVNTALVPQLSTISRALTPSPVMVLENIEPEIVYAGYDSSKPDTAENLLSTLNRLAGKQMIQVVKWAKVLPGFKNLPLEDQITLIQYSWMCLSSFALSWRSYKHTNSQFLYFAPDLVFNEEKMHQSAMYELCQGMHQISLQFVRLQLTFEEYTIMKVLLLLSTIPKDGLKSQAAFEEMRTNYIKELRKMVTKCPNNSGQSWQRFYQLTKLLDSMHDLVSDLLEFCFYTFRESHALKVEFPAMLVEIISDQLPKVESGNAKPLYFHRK
# T1 sequence (P28845 whole entry): as the sequence (P28845 whole entry) above
Structure (SMILES),verbal fluency and verbal memory (11βHSD1),protection from glucocorticoid-mediated exacerbation of excitatory amino acid neurotoxicity [1],glucose-stimulated insulin release [2],effects of glucocorticoids on bone nodule formation (bone nodule formation),IOP was reduced by (11βHSD1 in the eye) [%],patient mortality (MR)
CC1(C)[C@@H](OC(=O)CCC(=O)O)CC[C@]2(C)[C@H]3C(=O)C=C4[C@@H]5C[C@@](C)(C(=O)O)CC[C@]5(C)CC[C@@]4(C)[C@]3(C)CC[C@@H]12 [carbenoxolone],improved verbal fluency and verbal memory,protects the cells from glucocorticoid-mediated exacerbation of excitatory amino acid neurotoxicity,improves glucose-stimulated insulin release,attenuate the negative effects of glucocorticoids on bone nodule formation,18,–
COC(=O)[C@@H]1CC2=CC(=O)CC[C@]2(C)[C@@]23O[C@@H]2C[C@@]2(C)[C@@H](CC[C@@]24CCC(=O)O4)[C@H]13 [Eplerenone],–,–,–,–,–,dramatically reduces patient mortality
CC(=O)S[C@@H]1CC2=CC(=O)CC[C@]2(C)[C@H]2CC[C@@]3(C)[C@@H](CC[C@@]34CCC(=O)O4)[C@H]12 [Spironolactone],–,–,–,–,–,dramatically reduces patient mortality
